According to publication PMC5612488 (Journal of the American Chemical Society, 2017):
pEC50, pKi: −log10 of the molar value. “And” between values parts separate entries of the source, which are not always exact repeats. Equal entries are not always repeated.

Tests used:
[1] = tested on: BoNT/A-mediated cleavage of SNAP-25 in hiPSC-derived neurons; format: cell-based, human; details: for pEC50: read-out: EC50, protection of BoNT/A-intoxicated neurons (SNAP-25 cleavage)
[2] = mouse, in vivo, sc, 1 mg/kg
BoNT/A = details: mouse
BoNT/A LC = BoNT/A LC (Clostridium botulinum, UniProt P0DPI0); format: biochemical
Chain of BoNT/A LC (P0DPI0 2-448 limits assumed): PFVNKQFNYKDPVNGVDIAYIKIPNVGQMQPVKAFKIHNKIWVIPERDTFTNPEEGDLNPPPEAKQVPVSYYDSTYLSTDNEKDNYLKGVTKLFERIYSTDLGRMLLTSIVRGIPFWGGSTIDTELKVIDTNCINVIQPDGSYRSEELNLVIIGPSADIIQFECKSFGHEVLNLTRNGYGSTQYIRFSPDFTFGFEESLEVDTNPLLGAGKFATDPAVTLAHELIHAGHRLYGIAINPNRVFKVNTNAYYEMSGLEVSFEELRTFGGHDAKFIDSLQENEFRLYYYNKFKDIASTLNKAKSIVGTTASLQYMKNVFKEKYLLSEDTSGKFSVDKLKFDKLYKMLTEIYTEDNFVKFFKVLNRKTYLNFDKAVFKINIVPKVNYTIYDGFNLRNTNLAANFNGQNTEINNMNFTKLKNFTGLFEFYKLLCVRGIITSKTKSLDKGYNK

| Molecule | result in cell-based BoNT/A assay [1] | survival of mice treated with complex only without toxin [2] | in vivo efficacy against BoNT/A (BoNT/A) | time to death (BoNT/A; in vivo) | effect on SNAP-25 cleavage [1] | pEC50 [1] | other results |
| --- | --- | --- | --- | --- | --- | --- | --- |
| Oc1c(Cl)cc(Cl)c2cccnc12 [DCOQ, 5,7-dichloroquinolin-8-ol] | promising results |  |  |  |  |  |  |
| c1ccc(-c2ccccn2)nc1 [BIPY, 2,2′-bipyridine] | promising results |  |  |  |  |  |  |
| COCCN(CCOC)C(=S)[S-].COCCN(CCOC)C(=S)[S-].[Cu+2] [Cu(MEDTC)2, copper (II) bis(2-methoxyethyl)dithiocarbamate] |  | complete survival | efficacy against BoNT/A was established | significant increase | able to mitigate SNAP-25 cleavage | ~6.00 |  |
| O=C1O[C@H]([C@@H](O)CO)C([O-])=C1O.[Na+] [ASC, Sodium ascorbate, reference compound] |  |  |  |  |  |  | effect on enzyme activity (BoNT/A LC): no effect |
| CNC(=S)NN=CC=NNC(=S)NC.[Cu+2] [Cu(GTSM), copper (II) glyoxal-bis(4-methylthiosemicarbazone)] |  | complete survival | efficacy against BoNT/A was established | significant increase | able to mitigate SNAP-25 cleavage | ~6.00 | efficacy after BoNT/A challenge (BoNT/A; in vivo): statistically significant efficacy was not achieved; time to death post-toxin exposure (BoNT/A; in vivo, sc): marked increase; delay between +complex and control curves of SNAP-25 cleavage versus time [1]: less than half hour delay; effect of additives NAC, ASC or BSO on complex inhibition of BoNT/A [1]: no observable effect |
| CuCl2 [Cu (II)] |  |  |  |  |  |  | pKi (BoNT/A LC): 5.81 and ~6.00; enzyme activity (BoNT/A LC): < 1%; inhibition mechanism (BoNT/A LC): noncompetitive inhibition; inhibitory activity in metal salt screen (BoNT/A LC): significant inhibitory activity; reversibility of inhibitory effect on Vmax (BoNT/A LC): reversible |
